Data as given in US8586751B2, “Nicotinamide compounds useful as kinase modulators” (Bristol-Myers Squibb Company, priority 2009, dated 2013).

What was measured:
[1] = biological target: T1, human recombinant Btk (Homo sapiens, UniProt Q06187); assay: Human Recombinant Btk Enzyme Assay (LLE_BTK); format: biochemical
T1 construct: purchased Invitrogen Corporation
Procedure: Human Recombinant Btk Enzyme Assay
To V-bottom 384-well plates were added test compounds, human recombinant Btk (1 nM, Invitrogen Corporation), fluoresceinated peptide (1.5 μM), ATP (20 μM), and assay buffer (20 mM HEPES pH 7.4, 10 mM MgCl2, 0.015% Brij35 and 4 mM DTT in 1.6% DMSO), with a final volume of 30 μL. After incubating at room temperature for 60 min, the reaction was terminated by adding 45 μl of 35 mM EDTA to each sample. The reaction mixture was analyzed on the Caliper LABCHIP® 3000 (Caliper, Hopkinton, Mass.) by electrophoretic separation of the fluorescent substrate and phosphorylated product. Inhibition data were calculated by comparison to no enzyme control reactions for 100% inhibition and no inhibitor controls for 0% inhibition. Dose response curves were generated to determine the concentration required inhibiting 50% of kinase activity (IC50). Compounds were dissolved at 10 mM in dimethylsulfoxide (DMSO) and evaluated at eleven concentrations.
Using this assay, the following IC50 values derived by non-linear regression analysis were determined and compared to those values of certain compounds in U.S. Publication No. 2007/078136 and U.S. Publication No. 2008/045536.

[2] = test system: Ramos B cells with beta-lactamase reporter gene under control of an NFAT response element; assay: NFAT-bla RA1 Reporter Assay (Ramos-NFAT); format: cell-based, human; conditions: Homo sapiens, Ramos, read-out: IMM Ramos-NFAT (IC50)
Procedure: NFAT-bla RA1 Reporter Assay
Ramos B cells containing a stable integration of a beta-lactamase reporter gene under the control of an NFAT response element (NFAT-bla RA1, Invitrogen, K1434) at a density of 100×10^3 cells/well were incubated with test compounds at 37° C. for 30 min prior to stimulation with F(ab′)2 anti-human IgM (Jackson ImmunoResearch, 109-006-129) at 2.5 μg/ml for 4.5 hrs at 37° C. After stimulation, LiveBLAzer-FRET B/G substrate (CCF2/AM, or CCF4/AM, Invitrogen) was added to each well and incubated for 90 min at room temperature in the dark. Assay plates were read on an LJL Analyst, with raw emission values subtracted from a media-only blank containing substrate in assay media (no cells). The ratios of 460 nm/530 nm emission (405 nm excitation) were used to calculate the amount of stimulation.

T1 sequence (Q06187 whole entry): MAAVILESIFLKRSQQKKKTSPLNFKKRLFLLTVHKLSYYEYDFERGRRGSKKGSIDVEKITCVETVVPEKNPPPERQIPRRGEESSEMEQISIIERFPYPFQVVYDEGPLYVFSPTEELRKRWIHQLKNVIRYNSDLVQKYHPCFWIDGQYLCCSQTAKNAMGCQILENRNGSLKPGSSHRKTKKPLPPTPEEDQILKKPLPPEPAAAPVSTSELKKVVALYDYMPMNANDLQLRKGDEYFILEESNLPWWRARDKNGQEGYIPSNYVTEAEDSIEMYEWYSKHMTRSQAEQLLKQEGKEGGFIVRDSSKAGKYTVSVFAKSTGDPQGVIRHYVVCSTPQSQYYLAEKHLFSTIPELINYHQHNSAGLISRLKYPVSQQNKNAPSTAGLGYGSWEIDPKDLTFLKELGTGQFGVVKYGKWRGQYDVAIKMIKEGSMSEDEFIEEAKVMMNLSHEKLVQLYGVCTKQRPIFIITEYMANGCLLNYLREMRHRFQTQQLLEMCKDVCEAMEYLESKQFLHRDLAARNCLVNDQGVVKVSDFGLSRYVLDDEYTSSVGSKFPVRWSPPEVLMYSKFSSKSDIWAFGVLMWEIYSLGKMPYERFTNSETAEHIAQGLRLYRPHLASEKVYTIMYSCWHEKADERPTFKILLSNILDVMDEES

| IC50 [1] | IC50 [2] | SMILES |
| --- | --- | --- |
| 1.8 µM | – | NC(=O)c1ccc(N2CCNCC2)nc1Nc1ccc(C(=O)N2CCOCC2)cc1 [Example 10, 2-(4-(Morpholine-4-carbonyl)phenylamino)-6-(piperazin-1-yl)nicotinamide] |
| 0.007 µM | 0.04 µM | Cc1csc(NC(=O)N[C@@H]2CCCN(c3ccc(C(N)=O)c(Nc4ccc(N5CCN(C)CC5)cc4)n3)C2)n1 [Example 12, (R)-2-(4-(4-Methylpiperazin-1-yl)phenylamino)-6-(3-(3-(4-methylthiazol-2-yl)ureido)piperidin-1-yl)nicotinamide] |
| 0.87 µM | – | NC(=O)c1cc(F)c(N2CCCCC2)nc1Nc1ccc(F)cc1 [Example 15, 5-Fluoro-2-(4-fluorophenylamino)-6-(piperidin-1-yl)nicotinamide] |
| 0.001 µM | 0.16 µM | CS(=O)(=O)c1ccc(Nc2nc(N3CCCC4(CC(c5ccccc5)=NO4)C3)ccc2C(N)=O)cc1 (stereo not drawn) [Example 29, 2-((4-(Methylsulfonyl)phenyl)amino)-6-(3-phenyl-1-oxa-2,7-diazaspiro[4.5]dec-2-en-7-yl)nicotinamide] |
| 1.4 µM | – | CC(C)(C)c1ccc(C(=O)Nc2cccc(-c3ccc(C(N)=O)c(Nc4ccc(C(=O)N5CCOCC5)cc4)n3)c2)cc1 [Example 37] |
| 0.75 µM | – | CC(C)(C)OC(=O)N[C@@H]1CCN(c2ccc(C(N)=O)c(Nc3ccc(C(=O)N4CCOCC4)cc3)n2)C1 [Example 44] |
| 2.1 µM | – | NC(=O)c1ccc(N2CC[C@@H](N)C2)nc1Nc1ccc(C(=O)N2CCOCC2)cc1 [Example 45] |
| 0.74 µM | – | NC(=O)c1ccc(N2CC[C@@H](NC(=O)c3ccc(C(F)(F)F)cc3)C2)nc1Nc1ccc(C(=O)N2CCOCC2)cc1 [Example 50] |
| 1 µM | – | CC(=O)c1ccccc1-c1ccc(C(N)=O)c(Nc2ccc(C(=O)N3CCOCC3)cc2)n1 [Example 132] |
| 1.2 µM | – | NC(=O)c1ccc(-c2ccc(Cl)c(C(F)(F)F)c2)nc1Nc1ccc(C(=O)N2CCOCC2)cc1 [Example 143] |
| 1.4 µM | – | Cc1ccc(NC(=O)c2ccc(C(C)(C)C)cc2)cc1-c1ccc(C(N)=O)c(Nc2ccc(C(=O)N3CCOCC3)cc2)n1 [Example 162] |
| 1.5 µM | – | CC(C)(C)c1ccc(NC(=O)[C@@H]2CCN(c3ccc(C(N)=O)c(Nc4ccc(C(=O)N5CCOCC5)cc4)n3)C2)cc1 [Example 163] |
| 2.7 µM | – | CC(C)(C)c1ccc(NC(=O)[C@@H]2CCCN(c3ccc(C(N)=O)c(Nc4ccc(C(=O)N5CCOCC5)cc4)n3)C2)cc1 [Example 164] |
| 2.9 µM | – | NC(=O)c1ccc(N2CCC[C@@H](C(=O)O)C2)nc1Nc1ccc(C(=O)N2CCOCC2)cc1 [Example 165] |
| 0.0009 µM | 5.7 µM | NC(=O)c1ccc(N2CCC[C@@H](NC(=O)c3cccc(-c4nc5ccccc5[nH]4)c3)C2)nc1Nc1ccc(C(=O)N2CCOCC2)cc1 [Example 263] |
| 0.01 µM | 0.12 µM | Cc1ccc(NC(=O)N[C@@H]2CCCN(c3ccc(C(N)=O)c(Nc4ccc(N5CCN(C)CC5)cc4)n3)C2)cc1C [Example 283] |
| 0.007 µM | 0.06 µM | CN1CCN(c2ccc(Nc3nc(N4CCC[C@@H](NC(=O)Nc5nccs5)C4)ccc3C(N)=O)cc2)CC1 [Example 284] |
| 1.7 µM | – | CC(C)(C)OC(=O)N[C@@H]1CCCN(c2ccc(C(N)=O)c(Nc3ccccc3)n2)C1 [Example 295] |
| 12 µM | – | NC(=O)c1ccc(NCc2ccccc2)nc1Nc1ccccc1 [Example 298] |
| 1.5 µM | – | NC(=O)c1ccc(N2CCC[C@@H](N)C2)nc1Nc1ccccc1 [Example 299] |
| 1.3 µM | – | Cc1ccc(NC(=O)N[C@@H]2CCCN(c3ccc(C(N)=O)c(Nc4ccccc4)n3)C2)cc1C [Example 300] |
| 0.88 µM | – | N#Cc1ccc(Nc2nc(N3CCC[C@@H](N)C3)ccc2C(N)=O)cc1 [Example 302] |
| 1.8 µM | – | CC(C)(C)OC(=O)c1ccc(Nc2nc(N3CCCCC3)ccc2C(N)=O)cc1 [Example 314] |
| 0.78 µM | – | NC(=O)c1ccc(N2CCCCC2)nc1Nc1ccc(C(=O)Nc2ccccc2)cc1 [Example 323] |
| 0.78 µM | – | COc1cccc(Nc2nc(N3CCC[C@@H](NC(=O)Nc4nc(C)cs4)C3)ccc2C(N)=O)c1 [Example 331] |
| 0.76 µM | – | Cc1csc(NC(=O)N[C@@H]2CCCN(c3ccc(C(N)=O)c(Nc4ccc(N5CCOCC5)cc4)n3)C2)n1 [Example 337] |
| 0.9 µM | 0.92 µM | NC(=O)c1ccc(-c2cccc3c2CCNC3)nc1Nc1ccc(-c2cnco2)cc1 [Example 345] |

| IC50 [1] | IC50 [2] | SMILES |
| --- | --- | --- |
| 2.9 µM | 10 µM | NC(=O)c1ccc(-c2cccc3c2CCN(C(=O)c2ccccc2)C3)nc1Nc1ccc(-c2cnco2)cc1 [Example 346] |
| 2 µM | 10 µM | CC(=O)N1CCc2c(cccc2-c2ccc(C(N)=O)c(Nc3ccc(-c4cnco4)cc3)n2)C1 [Example 347] |
| 0.004 µM | 0.1 µM | CCN1CCN(c2ccc(Nc3nc(N4CCC[C@@H](NC(=O)c5ccccc5)C4)ccc3C(N)=O)cc2)CC1 [Example 354] |
| 0.004 µM | 0.1 µM | CC(C)N1CCN(c2ccc(Nc3nc(N4CCC[C@@H](NC(=O)c5ccccc5)C4)ccc3C(N)=O)cc2)CC1 [Example 357] |
| 0.009 µM | 0.1 µM | CC(=O)N1CCN(c2ccc(Nc3nc(N4CCC[C@@H](NC(=O)Nc5ccc(C)c(C)c5)C4)ccc3C(N)=O)cc2)CC1 [Example 361] |
| 1.2 µM | – | CS(=O)(=O)Nc1cccc(Nc2nc(-c3ccc(Cl)cc3)ccc2C(N)=O)c1 [Example 375] |
| 6.9 µM | – | CN(c1cccc(Nc2nc(-c3ccc(Cl)cc3)ccc2C(N)=O)c1)S(=O)(=O)Cc1ccccc1 [Example 376] |
| 3.2 µM | – | CNc1cccc(Nc2nc(-c3ccc(Cl)cc3)ccc2C(N)=O)c1 [Example 380] |
| 1 µM | – | CN(c1cccc(Nc2nc(-c3ccc(Cl)cc3)ccc2C(N)=O)c1)S(=O)(=O)c1ccccc1 [Example 381] |
| 0.002 µM | 0.8 µM | NC(=O)c1cc(F)c(N2CCC[C@@H](NC(=O)Nc3nccs3)C2)nc1Nc1ccc(C(=O)N2CCOCC2)cc1 [Example 382] |
| 0.003 µM | 0.02 µM | CN1CCN(c2ccc(Nc3nc(N4CCC[C@@H](NC(=O)Nc5nccs5)C4)c(F)cc3C(N)=O)cc2)CC1 [Example 385] |
| 0.01 µM | 0.11 µM | CC(=O)N[C@@H]1CCCN(c2nc(Nc3ccc(N4CCN(C)CC4)cc3)c(C(N)=O)cc2F)C1 [Example 386] |
| 0.004 µM | 0.07 µM | CN1CCN(c2ccc(Nc3nc(N4CCC[C@@H](NC(=O)c5ccccc5)C4)c(F)cc3C(N)=O)cc2)CC1 [Example 388] |
| 0.02 µM | 0.12 µM | CN1CCN(c2ccc(Nc3nc(N4CCCCC4)c(F)cc3C(N)=O)cc2)CC1 [Example 393] |
| 0.03 µM | 0.12 µM | CN1CCN(c2ccc(Nc3nc(N4CCC(O)CC4)c(F)cc3C(N)=O)cc2)CC1 [Example 407] |
| 0.001 µM | 0.18 µM | CN1CCN(c2ccc(Nc3nc(N4CCC[C@@H](NC(=O)c5ccc(F)cc5)C4)c(F)cc3C(N)=O)cc2)CC1 [Example 412] |
| 0.001 µM | 0.24 µM | CN1CCN(c2ccc(Nc3nc(N4CCC[C@@H](NC(=O)c5ccc(F)c(F)c5)C4)c(F)cc3C(N)=O)cc2)CC1 [Example 413] |
| 0.002 µM | 0.23 µM | CN1CCN(c2ccc(Nc3nc(N4CCC[C@@H](NC(=O)c5ccc(N(C)C)cc5)C4)c(F)cc3C(N)=O)cc2)CC1 [Example 414] |
| 0.002 µM | 0.38 µM | CN1CCN(c2ccc(Nc3nc(N4CCC[C@@H](N(C)C(=O)c5ccccc5)C4)c(F)cc3C(N)=O)cc2)CC1 [Example 418] |
| 2.6 µM | – | CNC(=O)c1ccc(N2CCC[C@@H](NC(=O)c3ccc(C(C)(C)C)cc3)C2)nc1Nc1ccc(C(=O)N2CCOCC2)cc1 [Example 442] |
| 0.0006 µM | – | CN1CCC(C)(c2ccc(Nc3nc(N4CCC[C@@H](NC(=O)Nc5nnc(C(C)(C)C)s5)C4)c(F)cc3C(N)=O)cc2)CC1 [Example 494] |
| 0.73 µM | – | COc1cc(Nc2nc(N3CCC[C@@H](NC(=O)c4ccccc4)C3)c(F)cc2C(N)=O)ccc1OCCNC1CC1 [Example 511] |
| 1 µM | – | CN(C(=O)Nc1ccccc1)c1cccc(Nc2nc(N3CCOCC3)c(F)cc2C(N)=O)c1 [Example 529] |
| 22 µM | – | NC(=O)c1cc(F)c(N2CCOCC2)nc1Nc1cccc(CS(=O)(=O)N2CCCC2)c1 [Example 533] |
| 0.98 µM | – | NC(=O)c1cc(F)c(N2CCOCC2)nc1Nc1cccc(N(S(=O)(=O)CCCCl)S(=O)(=O)CCCCl)c1 [Example 535] |
| 1.1 µM | – | CN(c1cccc(Nc2nc(N3CCOCC3)c(F)cc2C(N)=O)c1)S(=O)(=O)c1ccc(-c2ccccc2)cc1 [Example 537] |
| 1.2 µM | – | CN(c1cccc(Nc2nc(N3CCOCC3)c(F)cc2C(N)=O)c1)S(=O)(=O)c1cccc2ccccc12 [Example 538] |
